From patent US7572765B2, “Conformationally constrained parathyroid hormone (PTH) analogs” (The General Hospital Corporation, priority 2001, dated 2009) come the findings set out here.

Structures are written as SMILES. Square brackets hold non-standard residues; d marks the D form. Peptide text beside a SMILES is read from it. hArg = N=C(N)NCCCC[C@H](N)C(=O)O; Aib = CC(C)(N)C(=O)O

The target of the experiment is T1, human P1R (Homo sapiens, UniProt Q03431).
T1 construct: expressed in transfected cells; host or cells: HKRK-B28 (porcine kidney LLC-PK1, stably transfected)
T1 sequence (Q03431 27-593): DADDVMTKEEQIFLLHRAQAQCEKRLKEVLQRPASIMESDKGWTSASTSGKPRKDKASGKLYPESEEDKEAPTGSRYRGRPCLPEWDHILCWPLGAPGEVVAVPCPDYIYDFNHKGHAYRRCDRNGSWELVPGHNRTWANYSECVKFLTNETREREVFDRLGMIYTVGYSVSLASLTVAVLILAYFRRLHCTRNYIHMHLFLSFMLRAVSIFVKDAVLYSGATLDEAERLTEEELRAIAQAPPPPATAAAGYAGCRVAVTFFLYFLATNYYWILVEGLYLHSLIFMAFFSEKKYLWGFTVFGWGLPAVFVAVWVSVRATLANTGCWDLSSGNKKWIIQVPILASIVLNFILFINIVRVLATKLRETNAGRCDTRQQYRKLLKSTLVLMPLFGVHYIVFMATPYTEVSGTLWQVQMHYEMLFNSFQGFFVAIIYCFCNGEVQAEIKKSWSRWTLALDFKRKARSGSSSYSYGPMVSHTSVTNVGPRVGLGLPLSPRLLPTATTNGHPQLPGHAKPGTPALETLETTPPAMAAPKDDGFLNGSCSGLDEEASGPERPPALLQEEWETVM
In words: cAMP stimulation in HKRK-B28 cells. It is filed as cell-based. To be noted: basal 4.0 ± 0.1 pmole/well not subtracted. The procedure:
Cell Culture. The cell line HKRK-B28 (Takasu, H., et al., J. Bone Miner. Res. 14:11-20 (1999)) was derived from the porcine kidney cell line, LLC-PK1 by stable transfection with plasmid DNA encoding the human P1R and expresses ˜280,000 receptors per cell. These cells, as well as COS-7 cells and SaOS-2-B10 cells, were cultured at […] in T-75 flasks ([…]) in Dulbecco's modified Eagle's medium (DMEM) supplemented with fetal bovine serum (10%), penicillin G (20 units/ml), streptomycin sulfate (20 μg/ml) and amphotericin B (0.05 μg/ml) in a humidified atmosphere containing 5% CO2. Stock solutions of EGTA/trypsin and antibiotics were from GIBCO; fetal bovine serum was from Hyclone Laboratories (Logan, Utah). COS-7 cells sub-cultured in 24-well plates were transfected with plasmid DNA (200 ng per well) encoding the wild-type human P1R or truncated human P1R deleted for residues (24-181) (Shimizu, M., et al., J. Biol. Chem. 275:21836-21843 (2000)) that was purified by cesium chloride/ethidium bromide density gradient centrifugation, and FuGENE 6 transfection reagent (Roche Indianapolis Ind.) according to the manufacturer's recommended procedure. All cells, in 24-well plates, were treated with fresh media and shifted to 33° C. for 12 to 24 h prior to assay.
cAMP Stimulation. Stimulation of cells with peptide analogs was performed in 24-well plates. Cells were rinsed with 0.5 mL of binding buffer (50 mM Tris-HCI, […], 5 mM KCl, 2 mM CaCl2, 5% heat-inactivated horse serum, 0.5% fetal bovine serum, adjusted to pH 7.5 with HCl) and treated with 200 μL of cAMP assay buffer (Delbecco's modified Eagle's medium containing 2 mM 3-isobutyl-1-methylxanthine, 1 mg/mL bovine serum albumin, 35 mM Hepes-NaOH, pH 7.4) and 100 μL of binding buffer containing varying amounts of peptide analog (final volume=300 μL). The medium was removed after incubation for 30 to 60 minutes at room temperature, and the cells were frozen on dry ice, lysed with 0.5 mL 50 mM HCl, and refrozen ([…]). The cAMP content of the diluted lysate was determined by radioimmunoassay. The EC50 response values were calculated using nonlinear regression (see below).
Data Calculation. Calculations were performed using Microsoft® Excel. Nonlinear regression analyses of binding and cAMP dose-response data were performed using the four-parameter equation: yp=Min+[(Max−Min)/(1+(IC50/x)^slope)]. The Excel Solver function was utilized for parameter optimization, as described previously (Carter, P. H., et al., Endocrinology 140: 4972-4981 (1999); Bowen, W. P., and Jerman, J. C., Trends in Pharmacol. Sci. 16: 413-417 (1995)). Differences between paired data sets were statistically evaluated using a one-tailed Student's t-test, assuming unequal variances for the two sets.

Consider `CC[C@H](C)[C@H](NC(=O)[C@H](CCC(=O)O)NC(=O)[C@H](C)NC(=O)C(C)(C)NC(=O)[C@H](C)N)C(=O)N[C@@H](CCC(N)=O)C(=O)N[C@@H](CC(C)C)C(=O)N[C@@H](CCSC)C(=O)N[C@@H](Cc1c[nH]cn1)C(=O)N[C@@H](CCC(N)=O)C(=O)N[C@@H](CCCCNC(=N)N)C(=O)N[C@@H](C)C(=O)N[C@@H](CCCCN)C(=O)N[C@@H](Cc1c[nH]c2ccccc12)C(N)=O` [Aib-2] (H-A[Aib]AEIQLMHQ[hArg]AKW-NH2), for which the “cAMP EMax(obs.)” value was determined as 168 ± 6 pmole/well.
For the compound `CC[C@H](C)[C@H](NC(=O)C(C)(C)NC(=O)[C@H](C)NC(=O)[C@@H](NC(=O)[C@H](C)N)C(C)C)C(=O)N[C@@H](CCC(N)=O)C(=O)N[C@@H](CC(C)C)C(=O)N[C@@H](CCSC)C(=O)N[C@@H](Cc1c[nH]cn1)C(=O)N[C@@H](CCC(N)=O)C(=O)N[C@@H](CCCCNC(=N)N)C(=O)N[C@@H](C)C(=O)N[C@@H](CCCCN)C(=O)N[C@@H](Cc1c[nH]c2ccccc12)C(N)=O` [Aib-4] (H-AVA[Aib]IQLMHQ[hArg]AKW-NH2), the “cAMP EMax(obs.)” value is 221 ± 10 pmole/well.
On to `CC[C@H](C)[C@H](NC(=O)[C@H](CCC(=O)O)NC(=O)[C@H](C)NC(=O)[C@@H](NC(=O)[C@H](C)N)C(C)C)C(=O)NC(C)(C)C(=O)N[C@@H](CC(C)C)C(=O)N[C@@H](CCSC)C(=O)N[C@@H](Cc1c[nH]cn1)C(=O)N[C@@H](CCC(N)=O)C(=O)N[C@@H](CCCCNC(=N)N)C(=O)N[C@@H](C)C(=O)N[C@@H](CCCCN)C(=O)N[C@@H](Cc1c[nH]c2ccccc12)C(N)=O` [Aib-6] (H-AVAEI[Aib]LMHQ[hArg]AKW-NH2), for which the “cAMP EMax(obs.)” value was 116 ± 12 pmole/well.
Then `CC[C@H](C)[C@H](NC(=O)[C@H](CCC(=O)O)NC(=O)[C@H](C)NC(=O)[C@@H](NC(=O)[C@H](C)N)C(C)C)C(=O)N[C@@H](CCC(N)=O)C(=O)NC(C)(C)C(=O)N[C@@H](CCSC)C(=O)N[C@@H](Cc1c[nH]cn1)C(=O)N[C@@H](CCC(N)=O)C(=O)N[C@@H](CCCCNC(=N)N)C(=O)N[C@@H](C)C(=O)N[C@@H](CCCCN)C(=O)N[C@@H](Cc1c[nH]c2ccccc12)C(N)=O` [Aib-7] (H-AVAEIQ[Aib]MHQ[hArg]AKW-NH2), with 275 ± 8 pmole/well; and `CC[C@H](C)[C@H](NC(=O)[C@H](CCC(=O)O)NC(=O)[C@H](C)NC(=O)[C@@H](NC(=O)[C@H](C)N)C(C)C)C(=O)N[C@@H](CCC(N)=O)C(=O)N[C@@H](CC(C)C)C(=O)N[C@@H](CCSC)C(=O)N[C@@H](Cc1c[nH]cn1)C(=O)NC(C)(C)C(=O)N[C@@H](CCCCNC(=N)N)C(=O)N[C@@H](C)C(=O)N[C@@H](CCCCN)C(=O)N[C@@H](Cc1c[nH]c2ccccc12)C(N)=O` [Aib-10] (H-AVAEIQLMH[Aib][hArg]AKW-NH2), with 214 ± 22 pmole/well.
Consider `CC[C@H](C)[C@H](NC(=O)[C@H](CCC(=O)O)NC(=O)[C@H](C)NC(=O)[C@@H](NC(=O)[C@H](C)N)C(C)C)C(=O)N[C@@H](CCC(N)=O)C(=O)N[C@@H](CC(C)C)C(=O)N[C@@H](CCSC)C(=O)N[C@@H](Cc1c[nH]cn1)C(=O)N[C@@H](CCC(N)=O)C(=O)N[C@@H](CCCCNC(=N)N)C(=O)NC(C)(C)C(=O)N[C@@H](CCCCN)C(=O)N[C@@H](Cc1c[nH]c2ccccc12)C(N)=O` [Aib-12] (H-AVAEIQLMHQ[hArg][Aib]KW-NH2), for which the “cAMP EMax(obs.)” value is 263 ± 9 pmole/well.
For the compound `CC[C@H](C)[C@H](NC(=O)[C@H](CCC(=O)O)NC(=O)[C@H](C)NC(=O)[C@@H](NC(=O)[C@H](C)N)C(C)C)C(=O)N[C@@H](CCC(N)=O)C(=O)N[C@@H](CC(C)C)C(=O)N[C@@H](CCSC)C(=O)N[C@@H](Cc1c[nH]cn1)C(=O)N[C@@H](CCC(N)=O)C(=O)N[C@@H](CCCCNC(=N)N)C(=O)N[C@@H](C)C(=O)NC(C)(C)C(=O)N[C@@H](Cc1c[nH]c2ccccc12)C(N)=O` [Aib-13] (H-AVAEIQLMHQ[hArg]A[Aib]W-NH2), the “cAMP EMax(obs.)” value was determined as 259 ± 10 pmole/well.
